In test [1] the test system is GLUT4 in 3T3-L1 adipocytes. Put plainly: Western blot of GLUT4 protein level. Particulars: Rut 20 µM. The class given is cell-based. The method, then: Insulin sensitizing effects of Rut are investigated in CHO-K1 and 3T3-L1 adipocytes. After incubation with compounds in serum-free medium for indicated time, cells are stimulated with insulin (170 nM for CHO-K1 cells and 17 nM for 3T3-L1 adipocytes) for 5 min, and the stimulation is stopped by ice-cold PBS. The effect of Rut on insulin signaling is also investigated in CHO-K1 cells. In the assay, cells are stimulated with Rut (20 µM, 8 h) or insulin (170 nM, 5 min), and then lysed on ice. GLUT4 protein level is studied in the differentiated 3T3-L1 adipocytes (the 10th day after MDI stimulation). […] The proteins are resolved by SDS-polyacrylamide gel electrophoresis and electro-transferred to polyvinylidene difluoride membranes. The membrane is blocked by 5% skimmed milk and incubated with antibodies. Proteins are visualized by the ECL detecting system.
In general terms: Immunoblotting shows a protein as a band on a membrane.

In a further test the target is T1, RXRα:RXRα (Homo sapiens, UniProt P19793).
T1 construct: expressed in transfected cells; host or cells: HEK293
Put plainly: Transient transfection luciferase assay in HEK293 cells (RXRE). Particulars: HEK293, 24 h. The class given is cell-based. The method, then: (§1) HEK293 cells are transiently transfected by Lipo2000 respectively with RXRα, PPARγ, FXR, and LXRα plasmids plus pGL3-RXRE luciferase vector and renilla luciferase vector for 5 hours. Cells are then incubated with indicated concentrations of compounds for another 24 h and finally lysed. Luciferase activities are measured using Dual Luciferase Assay System kit. Rut dose-dependently activates (a) RXRα:RXRα and (b) PPARγ:RXRα activities. Rut has no effects on (c) FXR: RXRα and (d) LXRα:RXRα activities. Data are presented as means ± s.e.m (*P<0.05, **P<0.01) from three independent experiments.
(§2) HEK293 cells are transfected with luciferase reporter plus Renilla luciferase vector and other plasmids if needed for 5 hours, and cells are then incubated with indicated concentrations of compounds for another 24 h. Finally cells are lysed and luciferase activities are measured using Dual Luciferase Assay System kit. The results are presented as the fold activation relative to untreated cells after normalization with Renilla luciferase values. Each experiment is repeated at least twice, with each sample analyzed in triplicates.

For another test, the system named is 3T3-L1 adipocytes. Put plainly: 2-Deoxyglucose uptake in 3T3-L1 adipocytes. The class given is cell-based. As to the method: 3T3-L1 adipocytes are fully differentiated (the 10th day after MDI stimulation) and seeded into 24-well plate. After incubation with compounds in serum-free medium containing 0.5% BSA for 8 hours, medium is changed to Krebs buffer containing […] insulin and incubated for 30 minutes. In the last 5 minutes, cells are incubated with 2-[^3H]-deoxy-D-glucose. The glucose uptake is stopped by ice-cold PBS, and the cells are then lysed with 0.1% Triton. Finally the radioactivity is calculated by a scintillation counter. Cytochalasin B is used to measure nonspecific uptake, and the value is subtracted from all the data. Radioactivity is normalized by total protein concentration that is measured by BCA kit.

The target in a further test is T2, LXRα:RXRα (Homo sapiens, UniProt P19793+Q13133).
T2 construct: expressed in transfected cells; host or cells: HEK293
Put plainly: Transient transfection luciferase assay in HEK293 cells (LXRE). Format: cell-based. As to conditions: HEK293, 24 h. The method, then: as §1, §2

A further test concerns the target T3, PPARγ-LBD (Homo sapiens, UniProt P37231).
T3 construct: pET15b-PPARγ-LBD202–477; His-tag (N); made in house; host or cells: E. coli BL21 (DE3)
Put plainly: SPR (Biacore) binding assay. As to conditions: 1:1 Langmuir fitting. The method, then:
Binding affinities of Rut towards proteins are analyzed using SPR technology based Biacore 3000 instrument (GE Healthcare). In the assay, proteins are immobilized to CM5 chips using a standard amine-coupling procedure (Biacore manual). The proteins to be covalently bound to the chips are diluted in 10 mM sodium acetate buffer (pH4.5) to a final concentration of 0.10 mg/ml. Before experiments, baseline is equilibrated with a continuous flow of running buffer (10 mM HEPES, 150 mM NaCl, 3 mM EDTA, and 0.005% (v/v) surfactant P20, pH7.4) for 2 hours. Subsequently, Rut with a gradient of concentrations is injected to the channels at a flow rate of 20 µL/min for 60 seconds, followed by disassociation for 120 seconds. The 1∶1 Langmuir binding fitting model in BIAevaluation software version 3.1 (Biacore) is used to determine the equilibrium dissociation constants (K Ds) of compounds. […] Different concentrations of PPARγ-LBD or RXRα-LBD are injected to the channel at a flow rate of 20 µL/min for 60 s, followed by disassociation for 120 s.
In general terms: SPR reads the build-up and loss of mass on a sensor chip optically.

The next test has as its target T4, FXR: RXRα (Homo sapiens, UniProt P19793+Q96RI1).
T4 construct: expressed in transfected cells; host or cells: HEK293
Put plainly: Transient transfection luciferase assay in HEK293 cells (FXRE). As to conditions: HEK293, 24 h. Format: cell-based. As to the method: as §1, §2

The next test deals with T5, SRC1_613–773 (Homo sapiens, UniProt Q15788).
T5 construct: The plasmid pET15b-SRC1_613–773 is constructed with NdeI-BamHI sites; His-tag (N); made in house; host or cells: E. coli BL21 (DE3)
Put plainly: SPR (Biacore) binding assay, control. Particulars: SPR control experiment. The method, then: Binding affinities of Rut towards proteins are analyzed using SPR technology based Biacore 3000 instrument (GE Healthcare). In the assay, proteins are immobilized to CM5 chips using a standard amine-coupling procedure (Biacore manual). The proteins to be covalently bound to the chips are diluted in 10 mM sodium acetate buffer (pH4.5) to a final concentration of 0.10 mg/ml. Before experiments, baseline is equilibrated with a continuous flow of running buffer (10 mM HEPES, 150 mM NaCl, 3 mM EDTA, and 0.005% (v/v) surfactant P20, pH7.4) for 2 hours. Subsequently, Rut with a gradient of concentrations is injected to the channels at a flow rate of 20 µL/min for 60 seconds, followed by disassociation for 120 seconds. The 1∶1 Langmuir binding fitting model in BIAevaluation software version 3.1 (Biacore) is used to determine the equilibrium dissociation constants (K Ds) of compounds. For SRC1 recruitment assay, purified SRC1_613–773 is immobilized to a CM5 chip. Different concentrations of PPARγ-LBD or RXRα-LBD are injected to the channel at a flow rate of 20 µL/min for 60 s, followed by disassociation for 120 s. To further detect the effects of Rut on PPARγ-LBD/SRC1 or RXRα-LBD/SRC1 interactions, 1 µM PPARγ-LBD or RXRα-LBD is incubated with Rut (16.8–100 µM) for 1 hour, and then injected onto the chip.

T4 sequence (Q96RI1 whole entry): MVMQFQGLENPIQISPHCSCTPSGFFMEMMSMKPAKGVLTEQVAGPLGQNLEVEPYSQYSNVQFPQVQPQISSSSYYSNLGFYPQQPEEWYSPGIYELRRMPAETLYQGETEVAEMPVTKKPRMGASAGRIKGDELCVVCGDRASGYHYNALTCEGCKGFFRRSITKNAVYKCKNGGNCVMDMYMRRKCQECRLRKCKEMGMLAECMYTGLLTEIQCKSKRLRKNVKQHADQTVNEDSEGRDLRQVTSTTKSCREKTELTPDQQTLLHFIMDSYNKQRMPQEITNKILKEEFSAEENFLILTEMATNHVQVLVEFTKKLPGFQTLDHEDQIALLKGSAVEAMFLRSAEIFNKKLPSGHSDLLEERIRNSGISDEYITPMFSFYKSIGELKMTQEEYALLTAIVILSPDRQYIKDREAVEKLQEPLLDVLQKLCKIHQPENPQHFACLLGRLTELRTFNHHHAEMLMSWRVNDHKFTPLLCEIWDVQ
T4 sequence (P19793 whole entry): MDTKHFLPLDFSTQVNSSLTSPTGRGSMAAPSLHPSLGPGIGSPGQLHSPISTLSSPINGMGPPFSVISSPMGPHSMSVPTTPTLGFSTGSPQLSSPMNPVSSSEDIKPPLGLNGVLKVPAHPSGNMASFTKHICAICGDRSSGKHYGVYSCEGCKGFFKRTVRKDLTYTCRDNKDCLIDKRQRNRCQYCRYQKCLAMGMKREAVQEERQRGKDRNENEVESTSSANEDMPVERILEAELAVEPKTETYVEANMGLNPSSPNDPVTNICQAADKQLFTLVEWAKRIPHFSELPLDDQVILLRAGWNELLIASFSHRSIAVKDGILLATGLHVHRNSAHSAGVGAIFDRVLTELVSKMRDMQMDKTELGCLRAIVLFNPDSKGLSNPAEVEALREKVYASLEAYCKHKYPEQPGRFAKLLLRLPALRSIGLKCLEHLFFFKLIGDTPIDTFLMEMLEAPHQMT
T3 sequence (P37231 230-505): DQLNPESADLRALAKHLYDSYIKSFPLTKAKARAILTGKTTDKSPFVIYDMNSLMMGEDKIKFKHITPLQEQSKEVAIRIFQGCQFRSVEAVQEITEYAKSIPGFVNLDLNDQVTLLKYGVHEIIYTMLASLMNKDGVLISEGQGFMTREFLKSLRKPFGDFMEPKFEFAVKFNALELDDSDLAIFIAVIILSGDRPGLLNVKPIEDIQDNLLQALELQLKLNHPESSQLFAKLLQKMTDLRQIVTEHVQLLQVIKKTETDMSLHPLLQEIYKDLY
T2 sequence (Q13133 whole entry): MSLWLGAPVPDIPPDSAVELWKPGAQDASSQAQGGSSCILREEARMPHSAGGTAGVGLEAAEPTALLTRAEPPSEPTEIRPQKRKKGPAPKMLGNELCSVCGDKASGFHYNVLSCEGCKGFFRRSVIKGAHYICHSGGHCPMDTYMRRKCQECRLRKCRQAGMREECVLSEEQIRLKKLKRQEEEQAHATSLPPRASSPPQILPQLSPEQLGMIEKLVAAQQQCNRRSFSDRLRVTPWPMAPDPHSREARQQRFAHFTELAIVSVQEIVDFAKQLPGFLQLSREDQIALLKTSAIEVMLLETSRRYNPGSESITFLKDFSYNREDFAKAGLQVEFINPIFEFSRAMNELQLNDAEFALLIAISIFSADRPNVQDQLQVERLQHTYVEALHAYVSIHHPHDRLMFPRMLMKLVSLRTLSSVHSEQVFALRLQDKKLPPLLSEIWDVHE
T2 sequence (P19793 whole entry): as the sequence (P19793 whole entry) above
T5 sequence (Q15788 613-773): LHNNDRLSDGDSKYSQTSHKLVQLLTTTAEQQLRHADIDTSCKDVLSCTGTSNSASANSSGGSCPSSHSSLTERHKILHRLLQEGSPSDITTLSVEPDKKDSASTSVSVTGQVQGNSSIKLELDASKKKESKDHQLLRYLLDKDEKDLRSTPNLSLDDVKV
T1 sequence (P19793 whole entry): as the sequence (P19793 whole entry) above

`C=CC(C)(C)c1cc2cc3c(cc2oc1=O)O[C@H](C(C)(C)OC(C)=O)C3` [(+)-Rutamarin]: the GLUT4 protein level result in test [1] (8th hour) is reported as “no obvious increment”; in test [1] (48 hours), “potently increases”. In addition, at RXRα:RXRα, the “activity of RXR-response element (RXRE)” value is on record as “dose-dependently enhance”. The “glucose uptake without insulin stimulation” value in the test with 3T3-L1 adipocytes (Rut 20 µM, 8 hours) is recorded as “improves glucose uptake”. Besides, in the test with 3T3-L1 adipocytes (insulin 17 nM, Rut 5–25 µM, C2 10 µM), the insulin-induced glucose uptake result is recorded as “dose-dependently enhances”. Moreover, the “activity of LXR-response element (LXRE)” value at LXRα:RXRα is “without influencing”. The “equilibrium dissociation constant KD / binding to PPARγ-LBD” value on PPARγ-LBD was “no binding”. Also, on FXR: RXRα, the “activity of FXR-response element (FXRE)” value is “without influencing”. In addition, the “binding to SRC1” value on SRC1_613–773 was “does not bind”.

The record behind these values is paper PMC3288053 (PLoS ONE, 2012).
